The values that follow come from patent publication US9150510B2, “Amino acid derivative” (NIPPON ZOKI PHARMACEUTICAL CO., LTD., priority 2008, dated 2015).

Assay type in all cases: in vivo
The subject of data set [1] is ddY-type mice. Put plainly: Analgesic efficacy test (1): acetic acid writhing test (nociceptive pain model animal). The following applies: Mus musculus, 25 min, writhing number, male ddY mice, acetic acid i.p. 25 min after administration, mean ± standard error, read-out: Percent Suppression (%); for inhibition in vivo at 100 mg/kg: oral single dose 100 mg/kg; for inhibition in vivo at 10 mg/kg: oral single dose 10 mg/kg. The text has this: A compound of the present invention was orally administered to mice, to carry out an analgesic efficacy test according to acetic acid writhing test (nociceptive pain model animal). As an experimental animal, 4-week old male ddY-type mice were previously bred, and thereafter 8 mice per one group were used in the experiment. A solution or suspension prepared by dissolving or suspending a compound of the present invention in a 0.5% (w/v) aqueous CMC-Na solution was orally administered as a test substance in a single dose. While, to a control group, a 0.5% (w/v) aqueous CMC-Na solution was administered in the same manner. After 25 minutes from administration, the mice were intraperitoneally administered with a 0.7% (v/v) acetic acid/physiological saline at the dose of 10 mL/kg. From 5 minutes thereafter, writhing number in a 10-minute period was counted, and a suppressive rate for each individual (mean±standard error) was calculated by the following formula: […]
In the test for significance difference, Baltlett's test was carried out in the comparison between multiple groups of the group administered with test substance with the control group. In the case of homoscedasticity, Dunnett's multiple comparison test of parametrics, and in the case of heteroscedasticity, Dunnett's multiple comparison test of non-parametrics were used. In addition, in the test of dose dependency, Jockheere-Terpstra's test was used. In all cases, significance difference was considered to be found at P<0.05.

The test system of data set [2] is Chung model rat. Nature of the data set: Analgesic efficacy test (2): Chung model rat, neuropathic pain model (allodynia, von Frey filament). Particulars: Table 13, Wistar male rats, L5 spinal nerve ligation, mean ± standard error. The protocol:
An analgesic efficacy test was conducted using a Chung model rat, a neuropathic pain model. Using Wistar male rats after passing 9-week old as an experimental animal, a model rat was prepared in accordance with the method of Kim and Chung (Pain, 50, 355-363, 1992). Specifically, left L5 spinal nerves of rats were exposed under anesthetization with pentobarbital (35 mg/kg, intraperitoneal administration), and firmly ligated with 5-0 silk yarn at L5 dorsal root ganglion peripheral side. The animals were placed in a transparent acrylic cage of which bottom was wire netted The measurement of allodynia was carried out using von Frey filament (manufactured by North Coast Medical Inc.) and a 50% reaction threshold was calculated according to an up-down method, in accordance with methods of Chaplan et al. (J. Neurosci. Method, 53, 55-63, 1994) and Lee et al. (J. Neurophysiol., 81, 2226-2233, 1999). The 50% reaction thresholds were measured twice before injury of the spinal nerve, and those animals of which thresholds were outside the standard were removed from the operation of spinal nerve injury. On or after 14 days from the spinal nerve injury, a 50% reaction threshold was measured, and those showing thresholds of 1 g or more and less than 4 g were used as experimental animal. The group was constituted by 7 rats per group so that an average of a 50% reaction threshold for each group would be nearly even.
A solution or suspension prepared by dissolving or suspending a compound of the present invention in a 0.5% (w/v) aqueous CMC-Na solution was orally administered as a test substance in a single dose while, a 0.5% (w/v) aqueous CMC-Na solution was administered in the same manner to the control group for nerve injury. After 30 minutes from the administration, the measurement of allodynia was carried out, and a 50% reaction threshold (mean±standard error) was calculated. In the test for significance difference, Baltlett's test was carried out in the comparison between multiple groups of the group administered with test substance with the control group for nerve injury. In the case of homoscedasticity, Dunnett's multiple comparison test of parametrics, and in the case of heteroscedasticity, Dunnett's multiple comparison test of non-parametrics were used. In all cases, significance difference was considered to be found at P<0.05.

Data set [3] in a line: Test of blood kinetics in the rats. The following applies: rat, plasma, 2 mg/kg, fasted Wistar male rats, oral single dose of mixed solution of five compounds, each compound 2 mg/5 mL/kg, n=5, LC-MS; for AUC(0-inf): read-out: AUC0-∞ (area under the curve for concentration in blood, time 0 to infinite hours); for Cmax: read-out: Cmax (maximum concentration in plasma). The protocol: Ten milligrams of a compound of the present invention was properly converted to a sodium salt with the same amount of sodium hydroxide, where necessary, and each was dissolved in 5 mL of water. Five compounds each among these aqueous solutions of the compounds of the present inventions were mixed, to prepare a mixed solution containing 0.4 mg/mL each of each compound. Six-week old Wistar SPF male rats that were fasted were orally administered with the mixed solution in a single dose using a gavage tube (each compound 2 mg/5 mL/kg, n=5). At time points of 0.25, 0.5, 1, 2, 4, and 8 hours after the administration, about 150 μL of blood was collected using a heparin-added capillary tube from veins of rat tails. The capillary tubes were centrifuged to collect the plasma. The plasma sample was deprotenized and the supernatant was diluted to prepare each of measurement sample solutions. The concentration of the compound of the present invention in each of measurement sample solutions was quantified using LC-MS, and Cmax (maximum concentration in plasma) and AUC (area under the curve for concentration in blood, time 0 to infinite (∞) hours) of the compounds of the present invention were calculated.

`COc1ccccc1C=CC(=O)N[C@@H](Cc1c[nH]c2ccccc12)C(=O)O` [Compound 11, N^α-[3-(2-Methoxyphenyl)acryloyl]-L-tryptophan]: the inhibition in vivo at 100 mg/kg in data set [1] was found to be 60.9 ± 5.9%. Moreover, the “50% Reaction Threshold (g), Group Administered with Test Substance, 30 Min. After Administration” value (“50% Reaction Threshold (g)” for short) in data set [2] (oral single dose 10 mg/kg) stood at 10.55 ± 1.50 g. Also, in data set [3], the AUC(0-inf) turned out to be 10600 ng·h/mL and the Cmax is 1700 ng/mL.
Consider `C=CC(=O)N[C@@H](Cc1c[nH]c2ccccc12)C(=O)O` [Compound 1, N^α-Acryloyl-L-tryptophan], for which the inhibition in vivo at 10 mg/kg in data set [1] worked out at 25.7 ± 6.3%. In data set [2] (oral single dose 10 mg/kg), the “50% Reaction Threshold (g)” value stood at 11.18 ± 1.74 g. In addition, in data set [3], the AUC(0-inf) was 24200 ng·h/mL and the Cmax amounted to 7100 ng/mL.
For the compound `N#CC(=Cc1ccccc1F)C(=O)N[C@@H](Cc1c[nH]c2ccccc12)C(=O)O` [Compound 22, N^α-[2-Cyano-3-(2-fluorophenyl)acryloyl]-L-tryptophan], the inhibition in vivo at 10 mg/kg in data set [1] stood at 39.9 ± 8.6%. For the same compound, the “50% Reaction Threshold (g)” value in data set [2] (oral single dose 10 mg/kg) worked out at 11.34 ± 1.52 g. Further, in data set [3], the AUC(0-inf) amounted to 11400 ng·h/mL and the Cmax is 4000 ng/mL.
`CSCC[C@H](NC(=O)C=Cc1ccccc1F)C(=O)O` [Compound 67, N-[3-(2-Fluorophenyl)acryloyl]-L-methionine]: the inhibition in vivo at 10 mg/kg in data set [1] was 43.5 ± 6.9%. For the same compound, the “50% Reaction Threshold (g)” value in data set [2] (oral single dose 1 mg/kg) was found to be 4.94 ± 0.61 g.
With `O=C(C=Cc1c(F)cccc1F)N[C@@H](Cc1c[nH]c2ccccc12)C(=O)O` [Compound 13, N^α-[3-(2,6-Difluorophenyl)acryloyl]-L-tryptophan], the inhibition in vivo at 10 mg/kg in data set [1] was 52.9 ± 7.7%. In addition, in data set [2] (oral single dose 10 mg/kg), the “50% Reaction Threshold (g)” value worked out at 9.94 ± 1.56 g. In data set [3], the AUC(0-inf) was determined as 46300 ng·h/mL and the Cmax stood at 7400 ng/mL.
Take `Cn1cc(C[C@H](NC(=O)C=Cc2ccccc2)C(=O)O)c2ccccc21` [Compound 29, 1-Methyl-N^α-(3-phenylacryloyl)-L-tryptophan]: the inhibition in vivo at 10 mg/kg in data set [1] was determined as 56.8 ± 6.8%. The “50% Reaction Threshold (g)” value in data set [2] (oral single dose 10 mg/kg) was 6.45 ± 1.39 g. In data set [3], the AUC(0-inf) worked out at 238000 ng·h/mL and the Cmax was 50600 ng/mL.
For the compound `N#Cc1ccccc1C=CC(=O)N[C@@H](Cc1c[nH]c2ccccc12)C(=O)O` [Compound 9, N^α-[3-(2-Cyanophenyl)acryloyl]-L-tryptophan], the inhibition in vivo at 10 mg/kg in data set [1] is 41 ± 12.9%. Moreover, the “50% Reaction Threshold (g)” value in data set [2] (oral single dose 1 mg/kg) is reported as 6.28 ± 0.42 g.
On to `O=C(C=Cc1ccccc1O)N[C@@H](Cc1c[nH]c2ccccc12)C(=O)O` [Compound 2, N^α-[3-(2-Hydroxyphenyl)acryloyl]-L-tryptophan], for which the inhibition in vivo at 10 mg/kg in data set [1] stood at 41.8 ± 4.1%. Besides, the “50% Reaction Threshold (g)” value in data set [2] (oral single dose 10 mg/kg) was 11.64 ± 1.81 g.
Regarding `NC(=O)[C@H](Cc1c[nH]c2ccccc12)NC(=O)C=Cc1ccccc1F` [Compound 23, N^α-[3-(2-Fluorophenyl)acryloyl]-L-tryptophanamide], the inhibition in vivo at 100 mg/kg in data set [1] turned out to be 48.2 ± 11.5%. Also, the “50% Reaction Threshold (g)” value in data set [2] (oral single dose 10 mg/kg) turned out to be 9.37 ± 1.56 g.
Turning to `O=C(C=Cc1ccc(Oc2ccccc2)cc1)N[C@@H](Cc1c[nH]c2ccccc12)C(=O)O` [Compound 18, N^α-[3-(4-Phenoxyphenyl)acryloyl]-L-tryptophan], the inhibition in vivo at 10 mg/kg in data set [1] was determined as 56.5 ± 4.2%. In addition, in data set [2] (oral single dose 10 mg/kg), the “50% Reaction Threshold (g)” value is listed as 11.73 ± 1.60 g.
For the compound `N#Cc1ccc(C=CC(=O)N[C@@H](Cc2c[nH]c3ccccc23)C(=O)O)cc1` [Compound 19, N^α-[3-(4-Cyanophenyl)acryloyl]-L-tryptophan], in data set [1], the inhibition in vivo at 100 mg/kg was 52.2 ± 6.1%. For the same compound, in data set [2] (oral single dose 1 mg/kg), the “50% Reaction Threshold (g)” value is 5.16 ± 0.41 g.
For the compound `O=C(N[C@@H](Cc1c[nH]c2ccccc12)C(=O)O)c1cc2ccccc2oc1=O` [Compound 21, N^α-(Coumarin-3-carbonyl)-L-tryptophan], in data set [1], the inhibition in vivo at 10 mg/kg turned out to be 38.3 ± 6.5%. The “50% Reaction Threshold (g)” value in data set [2] (oral single dose 1 mg/kg) stood at 3.93 ± 0.16 g.
In the case of `N#Cc1cccc(C=CC(=O)N[C@@H](Cc2c[nH]c3ccccc23)C(=O)O)c1` [Compound 17, N^α-[3-(3-Cyanophenyl)acryloyl]-L-tryptophan], the inhibition in vivo at 10 mg/kg in data set [1] was 54.7 ± 6.8%. In data set [2] (oral single dose 10 mg/kg), the “50% Reaction Threshold (g)” value is given as 12.99 ± 1.53 g.
In the case of `O=C(C=Cc1cc(C(F)(F)F)cc(C(F)(F)F)c1)N[C@@H](Cc1c[nH]c2ccccc12)C(=O)O` [Compound 16, N^α-{3-[3,5-Bis(trifluoromethyl)phenyl]acryloyl}-L-tryptophan], the inhibition in vivo at 100 mg/kg in data set [1] was found to be 69 ± 4.9%. For the same compound, the “50% Reaction Threshold (g)” value in data set [2] (oral single dose 10 mg/kg) turned out to be 8.38 ± 1.07 g.
Turning to `COc1ccc(C[C@H](NC(=O)C=Cc2ccccc2O)C(=O)O)cc1` [Compound 39, N-[3-(2-Hydroxyphenyl)acryloyl]-O^4-methyl-L-tyrosine], the “50% Reaction Threshold (g)” value in data set [2] (oral single dose 10 mg/kg) came to 11.44 ± 1.70 g.
Turning to `Cn1cc(C[C@H](NC(=O)C=Cc2ccccc2F)C(=O)O)c2ccccc21` [Compound 27, N^α-[3-(2-Fluorophenyl)acryloyl]-1-methyl-L-tryptophan], the inhibition in vivo at 3 mg/kg in data set [1] (oral single dose 3 mg/kg) is 45 ± 10%. For the same compound, in data set [3], the AUC(0-inf) amounted to 404000 ng·h/mL and the Cmax is 53300 ng/mL.
Turning to `N=C(N)NCCC[C@H](NC(=O)C=Cc1ccccc1F)C(=O)O` [Compound 64, N^α-[3-(2-Fluorophenyl)acryloyl]-L-arginine], the inhibition in vivo at 10 mg/kg in data set [1] was 50.6 ± 7.5%. Also, the “50% Reaction Threshold (g)” value in data set [2] (oral single dose 1 mg/kg) amounted to 6.21 ± 1.04 g.
Consider `COc1ccc(C[C@H](NC(=O)C=Cc2ccc(F)cc2F)C(=O)O)cc1` [Compound 51, N-[3-(2,4-Difluorophenyl)acryloyl]-O^4-Methyl-L-Tyrosine], for which the inhibition in vivo at 10 mg/kg in data set [1] turned out to be 42.2 ± 9.1%. Besides, in data set [3], the AUC(0-inf) worked out at 116000 ng·h/mL and the Cmax was 33000 ng/mL.
Turning to `COc1ccc(C[C@H](NC(=O)C=Cc2ccccc2F)C(=O)O)cc1` [Compound 40, N-[3-(2-Fluorophenyl)acryloyl]-O^4-methyl-L-tyrosine], in data set [1], the inhibition in vivo at 10 mg/kg was found to be 42.3 ± 7%. In data set [3], the AUC(0-inf) worked out at 61700 ng·h/mL and the Cmax was determined as 48700 ng/mL.
Take `O=C(C=Cc1ccccc1C(F)(F)F)N[C@@H](Cc1c[nH]c2ccccc12)C(=O)O` [Compound 10, N^α-[3-(2-Trifluoromethylphenyl)acryloyl]-L-tryptophan]: the inhibition in vivo at 10 mg/kg in data set [1] is 41.6 ± 9.6%. In addition, the “50% Reaction Threshold (g)” value in data set [2] (oral single dose 10 mg/kg) turned out to be 6.73 ± 1.26 g.
